Experimental data from patent publication US20130071897A1, “METHOD FOR CONTROLLING UNDESIRABLE BYPRODUCTS FORMATION CAUSED BY CONTAMINATING ORGANISMS IN THE PRODUCTION OF ETHANOL FROM SYNGAS” (COSKATA, INC., priority 2011, published 2013).
“And” between values parts separate entries of the source, which are not always exact repeats. Equal values may be shown once.

Key:
C. coskatii = experiment: Balch tube batch growth of homoacetogen C. coskatii on fructose, optical density; assay type: cell-based; conditions: added 21 h after inoculation
Description: Compounds A and D were again tested to determine their effect on another known homoacetogen. Each compound was tested in a series of batch experiments to determine the growth response of the homoacetogen to the presence of the compound at varying concentrations. These batch experiments were again all conducted by anoxically filling a Balch tube with 5 ml of a fermentation medium having the composition given in Tables 2 and 3. To expedite results, these batch experiments used fructose as the growth nutrient source for bacteria. Thus, the media included 5 g/L of fructose.
Each tube was inoculated with 0.5 ml of the same strain of C. coskatii bacteria seed culture inoculum. The tubes were maintained at a temperature of 37° C. Twenty one hours after the inoculation of the tube with the bacteria, the different crotonate derivatives from Table 1 were added to different tubes in the amounts indicated in Table 5. This was at a time of early to mid-log phase growth for the bacteria. Each fermentation of the bacteria in the media at the different concentration of crotonate derivatives were allowed to progress and were monitored to determine the bacteria growth at selected intervals of time varying from approximately 20 hours to 50 hours. Growth at the intervals was determined by measurement of the OD in the manner described in Example 1. The ability of a tube fermentation at a particular concentration of crotonate derivative to reach a predetermined optical density was recorded in Table 5. Table 5 indicates the presence of bacterial growth to an OD of approximately 1.6 or above with a “+”. All the samples of C. Coskatii reached a relatively high OD after a time of only 50 hours.

butyrogen population = experiment: 2-L continuous syngas fermenter with butyrogen-contaminated Clostridium autoethanogenum culture; assay type: cell-based
Description: Additional experiments were conducted to determine the effect of the crotonyl derivatives in continuous fermentations containing butyrogen contamination. Compounds A and D were tested in a 2-L fermenter containing a seed culture from a 10,000 gallon bioreactor used in a large scale fermentation run.
To initiate the 2 liter fermentation a seed culture from the large scale fermenter was introduced into the 2 liter fermenter and grown on yeast extract to an OD greater than 1 at which time a substantial production of butyrogens was observed. The 2 liter fermenter was a Sartorius Biostat B Series fermenter that operated as a continuously stirred tank with a mixing speed of 200 rpm. After 24 hours of initial growth a gas stream having a composition 38% CO, 38% H2, 15% C02 and the balance CH4 was introduced into the fermenter. The fermentation was conducted at a temperature of 37° C., a pH of 5.30±0.05 and contained approximately 2 liters of fermentation media having a composition found in Table 8. Fresh fermentation media was continually added to the 2 liter fermenter at rate sufficient to establish a mean cell retention time of 5.8 days. The fermentation was allowed to progress and different concentrations of the compounds A and D were added to the fermentation as intermittent injections at different times. Each injection was allowed to wash out of the fermenter before next injection. The presence of acetate and butyrate compounds in the fermenter along with the OD of the fermentation media are shown in FIG. 3.
After approximately 500 hours of fermenter operation compound A was added directly into the fermenter to a concentration of 500 ppm when the OD was 1.82 and butyrate concentration was 4.5 g/L. Following introduction of the compound, the OD decreased rapidly by almost 50% in the first 24 hours and the butyrate concentration decreased by 20% in the same time period. Also in the first 24 hours the butanol content increased rapidly by 6-fold to 0.68 g/L, indicating rapid conversion of the butyric acid to butanol. The rate of conversion of the butyric acid and the dilution rate of the media combined to dramatically decrease the butyrate production rate until it was brought down to zero within 80 hours of initially adding compound A. (See FIG. 4) In addition the OD continued to decrease to a low of 0.54 after 80 hours.
After approximately 700 hours of fermenter operation and the washout of the first 500 ppm addition of compound A, another 50 ppm of compound A was added directly into the fermenter. A decrease in OD and butyrate concentration (See FIG. 3) followed the 50 ppm addition and continued for at least for the first 3 days.
After approximately another 8 days and the washout of the 50 ppm addition of compound A, the butyrate concentration increased to 2 g/L. At this time another 100 ppm of compound A was added directly into the fermenter approximately 890 hours into the run. […] After about 24 hours, the butyrate concentration began to decrease again declining almost 50% over the next 4 days. (See FIG. 3)
Fermenter operation was continued under the same operating conditions following the 100 ppm addition of compound A. After allowing 20 days for the complete wash out of compound A, 100 ppm of compound D was added directly into the fermenter approximately 1370 hours into the fermenter run. Upon the addition of compound D there was a sharp rise in the ethanol concentration and acetic acid concentration accompanied by a decrease in the butyrate production.
For 12 days after the first injection of compound D into the fermenter, the fermenter was allowed to wash out compound D. Then 500 ppm of compound D was injected directly into the fermenter after about 1660 hours of fermenter operation. (See FIG. 3) The resulting concentrations of the C2 and C4 alcohols and acids from the time of adding the 500 ppm of compound D are shown in Table 10.

[1] = 500 ppm compound A, 0.0 Hr after addition
[2] = 500 ppm compound A, 24.0 Hr after addition
[3] = 500 ppm compound A, 49.0 Hr after addition
[4] = 500 ppm compound A, 80.0 Hr after addition
[5] = 500 ppm compound A, 121.0 Hr after addition
[6] = 500 ppm compound A, 145.0 Hr after addition
[7] = 500 ppm compound A, first 24 hours
[8] = approximately 140 hours after 500 ppm addition of compound A
[9] = 100 ppm compound D at approximately 1370 hours
[10] = 500 ppm compound D, 0 Hr after addition
[11] = 500 ppm compound D, 30 Hr after addition
[12] = 500 ppm compound D, 49 Hr after addition
[13] = 500 ppm compound D, 73 Hr after addition
[14] = 500 ppm compound D, 123 Hr after addition
[15] = 500 ppm compound D, 145 Hr after addition
[16] = 500 ppm compound D, 168 Hr after addition
[17] = 500 ppm compound D, 193 Hr after addition
[18] = 500 ppm compound D, 217 Hr after addition
[19] = 500 ppm compound D, 240 Hr after addition

## CCOC(=O)C=C(C(F)(F)F)C(F)(F)F [Compound A, ethyl 4,4,4-trifluoro-3-(trifluoromethyl)crotonate]
C. coskatii; 100 ppm(m)
  Optical density valuation of C. coskatii: + (bacterial growth to an OD of approximately 1.6 or above)
C. coskatii; 500 ppm(m)
  Optical density valuation of C. coskatii: + (bacterial growth to an OD of approximately 1.6 or above)
C. coskatii; 1000 ppm(m)
  Optical density valuation of C. coskatii: + (bacterial growth to an OD of approximately 1.6 or above)
Butyrogen population; 2-L butyrogenic reactor, 500, 50 and 100 ppm trials
  Effect on the butyrogen population shortly after addition: inhibitory and bactericidal effect
Butyrogen population; 50 ppm compound A at approximately 700 hours
  Concentration of ethanol and acetic acid: continued increase
Butyrogen population; 50 ppm compound A at approximately 700 hours, at least first 3 days
  OD and butyrate concentration: decrease
Butyrogen population; 100 ppm compound A at approximately 890 hours
  Ethanol concentration: began to immediately increase
Butyrogen population; 100 ppm compound A at approximately 890 hours, over 4 days, starting about 24 hours after addition
  Decline of butyrate concentration: ~50%
Butyrogen population; [1]
  Acetic acid: 3.237 g/L
  Butyric acid: 4.5 g/L and 4.503 g/L
  Ethanol: 0.026 g/L
  OD @600 nm: 1.82
  n-Butanol: 0.109 g/L
Butyrogen population; [2]
  Acetic acid: 2.728 g/L
  Butyric acid: 3.600 g/L
  Ethanol: 0.266 g/L
  OD @600 nm: 1.09
  n-Butanol: 0.68 g/L and 0.681 g/L
Butyrogen population; [3]
  Acetic acid: 2.333 g/L
  Butyric acid: 3.074 g/L
  Ethanol: 0.255 g/L
  OD @600 nm: 0.76
  n-Butanol: 0.601 g/L
Butyrogen population; [4]
  Acetic acid: 1.959 g/L
  Butyric acid: 2.542 g/L
  Ethanol: 0.212 g/L
  OD @600 nm: 0.54
  n-Butanol: 0.497 g/L
Butyrogen population; [5]
  Acetic acid: 2.446 g/L
  Butyric acid: 1.842 g/L
  Ethanol: 0.345 g/L
  OD @600 nm: 0.75
  n-Butanol: 0.513 g/L
Butyrogen population; [6]
  Acetic acid: 4.082 g/L
  Butyric acid: 1.645 g/L
  Ethanol: 0.441 g/L
  OD @600 nm: 1.17
  n-Butanol: 0.311 g/L
Butyrogen population; [7]
  Decrease of OD: ~50%
  Decrease of butyrate concentration: 20%
  Increase of butanol content: 6 fold
Butyrogen population; 500 ppm compound A, from initial addition
  Time until butyrate production rate was brought down to zero: ≤ 80 h
Butyrogen population; [8]
  Acetic acid production: dramatic rise
  Increase in ethanol: over 100%
  OD recovery: nearly recovered to its original level

## O=C(O)C=C(C(F)(F)F)C(F)(F)F [D, 4,4,4-trifluoro-3-(trifluoromethyl)crotonic acid]
C. coskatii; 100 ppm(m)
  Optical density valuation of C. coskatii: + (bacterial growth to an OD of approximately 1.6 or above)
C. coskatii; 500 ppm(m)
  Optical density valuation of C. coskatii: + (bacterial growth to an OD of approximately 1.6 or above)
C. coskatii; 1000 ppm(m)
  Optical density valuation of C. coskatii: + (bacterial growth to an OD of approximately 1.6 or above)
Butyrogen population; [9]
  Butanol concentration: rose temporarily
  Butyrate Production: decrease
  Ethanol concentration and acetic acid concentration: sharp rise
Butyrogen population; 500 ppm compound D
  Inhibition of butyrogens versus homoacetogenic organisms: butyrogens were specifically inhibited whereas the homoacetogenic organisms were not inhibited
Butyrogen population; [10]
  Acetic acid: 8.72 g/L
  Butyric acid: 1.51 g/L
  EtOH: 0.55 g/L
  OD @600 nm: 1.40
  n-Butanol: 0.21 g/L
Butyrogen population; [11]
  Acetic acid: 8.48 g/L
  Butyric acid: 1.47 g/L
  EtOH: 0.61 g/L
  OD @600 nm: 1.35
  n-Butanol: 0.23 g/L
Butyrogen population; [12]
  Acetic acid: 8.64 g/L
  Butyric acid: 1.44 g/L
  EtOH: 0.69 g/L
  OD @600 nm: 1.23
  n-Butanol: 0.26 g/L
Butyrogen population; [13]
  Acetic acid: 8.56 g/L
  Butyric acid: 1.37 g/L
  EtOH: 0.68 g/L
  OD @600 nm: 1.12
  n-Butanol: 0.26 g/L
Butyrogen population; [14]
  Acetic acid: 8.72 g/L
  Butyric acid: 1.41 g/L
  EtOH: 0.53 g/L
  OD @600 nm: 0.92
  n-Butanol: 0.19 g/L
Butyrogen population; [15]
  Acetic acid: 8.75 g/L
  Butyric acid: 1.36 g/L
  EtOH: 0.88 g/L
  OD @600 nm: 1.12
  n-Butanol: 0.26 g/L
Butyrogen population; [16]
  Acetic acid: 8.83 g/L
  Butyric acid: 1.11 g/L
  EtOH: 0.95 g/L
  OD @600 nm: 1.38
  n-Butanol: 0.28 g/L
Butyrogen population; [17]
  Acetic acid: 8.86 g/L
  Butyric acid: 1.12 g/L
  EtOH: 0.87 g/L
  OD @600 nm: 1.18
  n-Butanol: 0.24 g/L
Butyrogen population; [18]
  Acetic acid: 9.05 g/L
  Butyric acid: 1.13 g/L
  EtOH: 0.84 g/L
  OD @600 nm: 1.24
  n-Butanol: 0.21 g/L
Butyrogen population; [19]
  Acetic acid: 9.21 g/L
  Butyric acid: 1.17 g/L
  EtOH: 0.82 g/L
  OD @600 nm: 1.25
  n-Butanol: 0.21 g/L
